Reference: ChEMBL document CHEMBL1201862, “PubChem BioAssay data set” (2004)
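Step 1: Grow cells in 96-well plates. Step 2: Expose to compound for 48 hours at 5 concentrations. Step 3: Interpolate endpoints linearly; if unreached, use highest concentration. GI50 = concentration required for 50% inhibition of growth.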 Activity calls are given as the source filed them. No stated cut-off is given here; in the data, active = GI50 up to about 1.1 µM and inactive = higher.

What was measured:
Experiment in all cases: NCI anticancer screen, dose series, 48 h
U-251 = system: U-251
RPMI-8226 = system: RPMI-8226
OVCAR-5 = system: OVCAR-5
NCI-H23 = system: NCI-H23
HCT-116 = system: HCT-116
MDA-MB-435 = system: MDA-MB-435
OVCAR-8 = system: OVCAR-8
HL-60 = system: HL-60
UACC-257 = system: UACC-257
K562 = system: K562
HOP-92 = system: HOP-92
DU-145 = system: DU-145
SF-539 = system: SF-539
HOP-62 = system: HOP-62
HT-29 = system: HT-29
SK-OV-3 = system: SK-OV-3
SF-295 = system: SF-295
RXF 393 = system: RXF 393
NCI-H522 = system: NCI-H522
ACHN = system: ACHN

Structure (SMILES)	GI50 (U-251)	GI50 (RPMI-8226)	GI50 (OVCAR-5)	GI50 (NCI-H23)	GI50 (HCT-116)	GI50 (MDA-MB-435)	GI50 (OVCAR-8)	GI50 (HL-60)	GI50 (UACC-257)	GI50 (K562)	GI50 (HOP-92)	GI50 (DU-145)	GI50 (SF-539)	GI50 (HOP-62)	GI50 (HT-29)	GI50 (SK-OV-3)	GI50 (SF-295)	GI50 (RXF 393)	GI50 (NCI-H522)	GI50 (ACHN)
O=C1C(Cl)=C(Nc2ccc(S(=O)(=O)Nc3ccccn3)cc2)C(=O)c2ccccc21	5.6 µM (inactive)	3.52 µM (inactive)	17.9 µM (inactive)	10.8 µM (inactive)	6.24 µM (inactive)	6.55 µM (inactive)	4.09 µM (inactive)	3.3 µM (inactive)	5 µM (inactive)	2.23 µM (inactive)	5.7 µM (inactive)	7.91 µM (inactive)	4.54 µM (inactive)	13 µM (inactive)	7.5 µM (inactive)	17 µM (inactive)	15.3 µM (inactive)	7.35 µM (inactive)	5.02 µM (inactive)	10.6 µM (inactive)
CC1=C(Br)C(=O)C(C)=C(Br)C1=O.Cc1c(O)c(Br)c(C)c(O)c1Br	6.47 µM (inactive)	2.27 µM (inactive)	10.8 µM (inactive)	2.21 µM (inactive)	1.69 µM (inactive)	1.89 µM (inactive)	1.93 µM (inactive)	1.12 µM (active)	1.6 µM (inactive)	1.41 µM (inactive)	1.78 µM (inactive)	2.31 µM (inactive)	4.78 µM (inactive)	12 µM (inactive)	2.07 µM (inactive)	15.6 µM (inactive)	16.3 µM (inactive)	1.88 µM (inactive)	1.99 µM (inactive)	1.68 µM (inactive)
COc1c(Cl)c(=O)oc2ccc(Cl)cc12	60.7 µM (inactive)	> 100 µM (inactive)	> 100 µM (inactive)	> 100 µM (inactive)	> 100 µM (inactive)	> 100 µM (inactive)	> 100 µM (inactive)	> 100 µM (inactive)	> 100 µM (inactive)	> 100 µM (inactive)	25.2 µM (inactive)	> 100 µM (inactive)	> 100 µM (inactive)	> 100 µM (inactive)	> 100 µM (inactive)	> 100 µM (inactive)	53.2 µM (inactive)	> 100 µM (inactive)	> 100 µM (inactive)	> 100 µM (inactive)
NC1C/C(=N\O)c2c(I)sc(I)c21 (stereo not given)	18.3 µM (inactive)	6.7 µM (inactive)	15.7 µM (inactive)	14.7 µM (inactive)	2.86 µM (inactive)	13.8 µM (inactive)	13.4 µM (inactive)	4.23 µM (inactive)	16 µM (inactive)	8.04 µM (inactive)	17.1 µM (inactive)	17.4 µM (inactive)	6.08 µM (inactive)	18.2 µM (inactive)	19.2 µM (inactive)	16.4 µM (inactive)	17.2 µM (inactive)	21.3 µM (inactive)	1.61 µM (inactive)	18.7 µM (inactive)
C=C(C(=O)OC)N1C(=O)CC(C)C1=O (stereo not given)	17.4 µM (inactive)	4.91 µM (inactive)	15.1 µM (inactive)	17.9 µM (inactive)	6.67 µM (inactive)	16.9 µM (inactive)	15.3 µM (inactive)	1.37 µM (inactive)	12.3 µM (inactive)	2.87 µM (inactive)	1.95 µM (inactive)	15.8 µM (inactive)	19 µM (inactive)	17.5 µM (inactive)	10.7 µM (inactive)	35.7 µM (inactive)	29.1 µM (inactive)	9.71 µM (inactive)	1.9 µM (inactive)	2.83 µM (inactive)
OCCNc1nc2c(N3CCCC3)nc(N3CCNCC3)nc2nc1NCc1ccccc1	11.1 µM (inactive)	16.7 µM (inactive)	12.1 µM (inactive)	18.2 µM (inactive)	10.1 µM (inactive)	12.4 µM (inactive)	15.9 µM (inactive)	15.5 µM (inactive)	17.3 µM (inactive)	14 µM (inactive)	7.8 µM (inactive)	11.3 µM (inactive)	16.3 µM (inactive)	2.63 µM (inactive)	8.15 µM (inactive)	16.8 µM (inactive)	17.6 µM (inactive)	11.3 µM (inactive)	12.7 µM (inactive)	15.5 µM (inactive)
c1ccc(N2N=C3N(c4ccccc4)C2N3c2ccccc2)cc1	46.8 µM (inactive)	15.7 µM (inactive)	71.9 µM (inactive)	37.9 µM (inactive)	31.3 µM (inactive)	17.6 µM (inactive)	35.9 µM (inactive)	38.5 µM (inactive)	23.1 µM (inactive)	14.7 µM (inactive)	14.1 µM (inactive)	56.5 µM (inactive)	22.3 µM (inactive)	58.2 µM (inactive)	29.4 µM (inactive)	> 100 µM (inactive)	36.1 µM (inactive)	45.3 µM (inactive)	21.6 µM (inactive)	40.5 µM (inactive)
CC(=O)Nc1ccc2c3c(cc(O)c2c1)N(C(=O)CCCC(=O)N1CC(CCl)c2c1cc(O)c1cc(NC(C)=O)ccc21)CC3CCl (stereo not given)	< 0.01 µM (active)	0.0109 µM (active)	0.0198 µM (active)	< 0.01 µM (active)	< 0.01 µM (active)	< 0.01 µM (active)	< 0.01 µM (active)	< 0.01 µM (active)	0.0114 µM (active)	< 0.01 µM (active)	0.0199 µM (active)	< 0.01 µM (active)	0.0223 µM (active)	< 0.01 µM (active)	0.0125 µM (active)	< 0.011 µM (active)	< 0.01 µM (active)	< 0.01 µM (active)	< 0.01 µM (active)	< 0.01 µM (active)
CCCCCCCCCCCCCCCCOP(=O)(O)OCC(NC(C)=O)C(=O)O (stereo not given)	20 µM (inactive)	41.7 µM (inactive)	> 100 µM (inactive)	33 µM (inactive)	36.4 µM (inactive)	35.4 µM (inactive)	> 100 µM (inactive)	43.8 µM (inactive)	54.1 µM (inactive)	> 100 µM (inactive)	55.3 µM (inactive)	> 100 µM (inactive)	32.4 µM (inactive)	19.2 µM (inactive)	> 100 µM (inactive)	> 100 µM (inactive)	20.4 µM (inactive)	21.7 µM (inactive)	5.64 µM (inactive)	> 100 µM (inactive)
